Legend:
human PTPN1 (1-435) = human PTPN1 (1-435) (Homo sapiens (Human), UniProt P18031); test: Human PTPN1 Biochemical Assay; details: DiFMUP substrate, read-out: PTP1B IC50
Method in brief: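 Read-out is DiFMUP hydrolysis fluorescence (360 nm excitation, 460 nm emission) after 1 h at room temperature, following 30 min enzyme–compound preincubation.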

human PTPN2 (1-387) = human PTPN2 (1-387) (Homo sapiens (Human), UniProt P17706); test: Human PTPN2 Biochemical Assay; details: DiFMUP substrate
Method in brief: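 Human PTPN2 (1-387) preincubated 30 min at RT with compound (10-point 3-fold series) in Tris pH 7.4 buffer with 0.5 mM DTT, then DiFMUP substrate added for 1 h at RT. Fluorescence at ex 360/em 460 nm, normalised to no-enzyme and enzyme controls; EC50 from 4-parameter fit.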

human PTPN1 (1-435), sequence (P18031 whole entry): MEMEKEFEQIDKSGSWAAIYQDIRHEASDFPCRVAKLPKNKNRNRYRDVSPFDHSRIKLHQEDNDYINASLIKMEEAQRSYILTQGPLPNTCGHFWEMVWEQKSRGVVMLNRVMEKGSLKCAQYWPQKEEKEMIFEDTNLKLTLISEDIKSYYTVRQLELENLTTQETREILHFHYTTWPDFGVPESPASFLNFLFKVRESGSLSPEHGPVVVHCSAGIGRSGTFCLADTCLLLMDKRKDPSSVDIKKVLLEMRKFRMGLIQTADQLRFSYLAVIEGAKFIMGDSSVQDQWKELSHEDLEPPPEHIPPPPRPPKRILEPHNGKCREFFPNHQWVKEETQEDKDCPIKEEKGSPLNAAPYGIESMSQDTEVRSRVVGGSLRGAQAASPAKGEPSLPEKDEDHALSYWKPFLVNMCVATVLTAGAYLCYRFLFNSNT
human PTPN2 (1-387), sequence (P17706 other isoform, or with tags, fused parts or gaps): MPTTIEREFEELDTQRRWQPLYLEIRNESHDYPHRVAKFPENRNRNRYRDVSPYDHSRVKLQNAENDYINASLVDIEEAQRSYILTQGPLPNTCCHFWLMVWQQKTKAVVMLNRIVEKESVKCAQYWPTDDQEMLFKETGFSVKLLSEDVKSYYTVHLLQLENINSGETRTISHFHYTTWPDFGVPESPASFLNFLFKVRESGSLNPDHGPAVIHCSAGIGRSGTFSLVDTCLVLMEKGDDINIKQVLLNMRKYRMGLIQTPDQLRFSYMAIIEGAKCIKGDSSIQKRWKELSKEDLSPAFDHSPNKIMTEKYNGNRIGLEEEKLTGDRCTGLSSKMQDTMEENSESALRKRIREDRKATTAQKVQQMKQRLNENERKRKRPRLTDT

Row | IC50 (human PTPN1 (1-435)) [nM] | IC50 (human PTPN2 (1-387)) [nM] | SMILES
1 | 42 | 64.5 | NC(=O)c1cc(OCC2CC3(CCC3)C2)c2sc(C(F)(F)P(=O)(O)O)c(Br)c2c1 [Compound 284]
2 | 6390 | 7490 | Cc1nn(C)cc1CNC(=O)c1ccc2sc(C(F)(F)P(=O)(O)O)c(Br)c2c1 [Compound 50]
3 | 2620 | 3790 | CCn1nccc1NC(=O)c1ccc2sc(C(F)(F)P(=O)(O)O)c(Br)c2c1 [Compound 99]
4 | 2400 | 2880 | O=C(NCc1ccc[n+]([O-])c1)c1ccc2sc(C(F)(F)P(=O)(O)O)c(Br)c2c1 [Compound 134]
5 | 540 | 682 | O=C(Nc1ccc(Sc2ccccc2)nc1)c1ccc2sc(C(F)(F)P(=O)(O)O)c(Br)c2c1 [Compound 100]
6 | 2410 | 2200 | CC(NC(=O)c1ccc2sc(C(F)(F)P(=O)(O)O)c(Br)c2c1)c1cccnn1 (single isomer, unassigned) [Compound 225, (R or S)-((3-bromo-5-((1-(pyridazin-3-yl)ethyl)carbamoyl)benzo[b]thiophen-2-yl)difluoromethyl)phosphonic acid]
7 | 4130 | 4160 | O=C1NC[C@@H](CNC(=O)c2ccc3sc(C(F)(F)P(=O)(O)O)c(Br)c3c2)N1 [Compound 131]
8 | 4440 | 6140 | CN(C(=O)c1ccc2sc(C(F)(F)P(=O)(O)O)c(Br)c2c1)c1cccc(Oc2ccccc2)c1 [Compound 20]
9 | 544 | 441 | NC(=O)c1cc(OCCOCC(F)(F)F)c2sc(C(F)(F)P(=O)(O)O)c(Br)c2c1 [Compound 237]
10 | 444 | 542 | CC1CCc2c(sc(NC(=O)c3ccc4sc(C(F)(F)P(=O)(O)O)c(Br)c4c3)c2C#N)C1 (stereo not drawn) [Compound 63]
11 | 2320 | 3650 | O=C(NCc1cc[nH]n1)c1ccc2sc(C(F)(F)P(=O)(O)O)c(Br)c2c1 [Compound 202]
12 | 3650 | 7470 | O=C(NCCn1cncn1)c1ccc2sc(C(F)(F)P(=O)(O)O)c(Br)c2c1 [Compound 146]
13 | 2080 | 2910 | CC(NC(=O)c1ccc2sc(C(F)(F)P(=O)(O)O)c(Br)c2c1)c1cncnc1 (stereo not drawn) [Compound 138]
14 | 2.5 | 2.5 | CS(=O)(=O)CCCOc1cc(-c2nc[nH]n2)cc2c(Br)c(C(F)(F)P(=O)(O)O)sc12 [Compound 439, ((3-bromo-7-(3-(methylsulfonyl)propoxy)-5-(1H-1,2,4-triazol-3-yl)benzo[b]thiophen-2-yl)difluoromethyl)phosphonic acid]
15 | 7080 | 8230 | O=C(N[C@H]1CCCNC1=O)c1ccc2sc(C(F)(F)P(=O)(O)O)c(Br)c2c1 [Compound 97]
16 | 692 | 364 | Cc1cc(C)c(COc2cc(C(N)=O)cc3c(Br)c(C(F)(F)P(=O)(O)O)sc23)c(C)c1 [Compound 352]
17 | 20.9 | 29.2 | CNC(=O)c1cc(OCCC2CC2(F)F)c2sc(C(F)(F)P(=O)(O)O)c(Br)c2c1 (stereo not drawn) [Compound 322]
18 | 11700 | 21600 | O=P(O)(O)C(F)(F)c1sc2cc(Br)ccc2c1Br [Compound 298, ((3,6-dibromobenzo[b]thiophen-2-yl)difluoromethyl)phosphonic acid]
19 | 6440 | 7160 | CC(NC(=O)c1ccc2sc(C(F)(F)P(=O)(O)O)c(Br)c2c1)c1cccnc1 (stereo not drawn) [Compound 35]
20 | 4300 | 4850 | O=C(NC(c1ccccc1)c1cccnc1)c1ccc2sc(C(F)(F)P(=O)(O)O)c(Br)c2c1 (stereo not drawn) [Compound 65]

Row | IC50 (human PTPN1 (1-435)) [nM] | IC50 (human PTPN2 (1-387)) [nM] | SMILES
21 | 1090 | 1510 | O=C(NC[C@]12C[C@@H]1CCN2Cc1ccccc1)c1ccc2sc(C(F)(F)P(=O)(O)O)c(Br)c2c1 [Compound 88]
22 | 140 | 120 | NC(=O)c1cc(CCCCS(N)(=O)=O)c2sc(C(F)(F)P(=O)(O)O)c(Br)c2c1 [Compound 311]
23 | 7090 | 3300 | COc1ccc(CCC(C)NC(=O)c2ccc3sc(C(F)(F)P(=O)(O)O)c(Br)c3c2)cc1 (stereo not drawn) [Compound 87]
24 | 7430 | 3470 | CCC(COCc1ccccc1)NC(=O)c1ccc2sc(C(F)(F)P(=O)(O)O)c(Br)c2c1 (stereo not drawn) [Compound 84]
25 | 29.5 | 16.3 | NC(=O)c1cc(OCc2ccc(C(F)(F)F)cc2)c2sc(C(F)(F)P(=O)(O)O)c(Br)c2c1 [Compound 345]
26 | 35 | 47.2 | NC(=O)c1cc(OCCCC(F)(F)C(F)(F)F)c2sc(C(F)(F)P(=O)(O)O)c(Br)c2c1 [Compound 272]
27 | 482 | 438 | Cc1c(C(F)(F)P(=O)(O)O)sc2c(OCC3CC3(F)F)cc(C(N)=O)cc12 (stereo not drawn) [Compound 434]
28 | 4080 | 7400 | CS(=N)(=O)c1cc(OCCCC(F)(F)F)c2sc(C(F)(F)P(=O)(O)O)c(Br)c2c1 (stereo not drawn) [Compound 413]
29 | 5760 | 7440 | CC(=O)N1CCC(CNC(=O)c2ccc3sc(C(F)(F)P(=O)(O)O)c(Br)c3c2)(C(F)(F)F)C1 (stereo not drawn) [Compound 74]
30 | 423 | 271 | NC(=O)c1cc(OCCOCC(F)F)c2sc(C(F)(F)P(=O)(O)O)c(Br)c2c1 [Compound 251]
31 | 361 | 435 | O=C(NCc1cccnn1)c1cc(F)c2sc(C(F)(F)P(=O)(O)O)c(Br)c2c1 [Compound 164]
32 | 2560 | 3080 | Cc1cc(NC(=O)c2ccc3sc(C(F)(F)P(=O)(O)O)c(Br)c3c2)n(Cc2ccccc2)n1 [Compound 73]
33 | 24 | 26.3 | NC(=O)c1cc(OCCC2CCCS2(=O)=O)c2sc(C(F)(F)P(=O)(O)O)c(Br)c2c1 (stereo not drawn) [Compound 264, ((3-bromo-5-carbamoyl-7-(2-(1,1-dioxidotetrahydrothiophen-2-yl)ethoxy)benzo[b]thiophen-2-yl)difluoromethyl)phosphonic acid]
34 | 5.2 | 3.98 | CS(=O)(=O)c1ccc(COc2cc(C(N)=O)cc3c(Br)c(C(F)(F)P(=O)(O)O)sc23)cn1 [Compound 379]
35 | 62 | 60.3 | O=C(NCc1cccnn1)c1cc(OCCCCn2ccnc2)c2sc(C(F)(F)P(=O)(O)O)c(Br)c2c1 [Compound 265]
36 | 3800 | 4990 | O=C(NCc1cccnc1C(F)(F)F)c1ccc2sc(C(F)(F)P(=O)(O)O)c(Br)c2c1 [Compound 120]
37 | 68.1 | 50.4 | NC(=O)c1cc(OCC2CC2(F)F)c2sc(C(F)(F)P(=O)(O)O)c(Br)c2c1 (stereo not drawn) [Compound 316]
38 | 8150 | 9660 | O=C(Nc1ccc2sc(C(F)(F)P(=O)(O)O)c(Br)c2c1)c1ccc(F)cc1 [Compound 212, ((3-bromo-5-(4-fluorobenzamido)benzo[b]thiophen-2-yl)difluoromethyl)phosphonic acid]
39 | 18.1 | 14.1 | N#CCCNC(=O)c1cc(OCCCC(F)(F)F)c2sc(C(F)(F)P(=O)(O)O)c(Br)c2c1 [Compound 329]

Row | SMILES | IC50 (human PTPN1 (1-435)) [nM] | IC50 (human PTPN2 (1-387)) [nM]
40 | COc1cc(C(=O)NCc2cccnn2)cc2c(Br)c(C(F)(F)P(=O)(O)O)sc12 [Compound 163] | 436 | 301
41 | N#Cc1c(C(F)(F)P(=O)(O)O)sc2ccc(C(=O)NC3CC(F)(F)C3)cc12 [Compound 4] | 1440 | 1200
42 | N#Cc1cc(C(=O)NCc2c[nH]nn2)cc2c(Br)c(C(F)(F)P(=O)(O)O)sc12 [Compound 162] | 244 | 222
43 | O=C(NC1(c2cccnc2)CC1)c1ccc2sc(C(F)(F)P(=O)(O)O)c(Br)c2c1 [Compound 180] | 13700 | 6630
44 | N#CC1(c2ccc(NC(=O)c3ccc4sc(C(F)(F)P(=O)(O)O)c(Br)c4c3)cc2)CCCCC1 [Compound 21] | 1410 | 2140
45 | CCC(NC(=O)c1ccc2sc(C(F)(F)P(=O)(O)O)c(Br)c2c1)c1cccnc1 (stereo not drawn) [Compound 177] | 839 | 2070
46 | CS(=N)(=O)Cc1cc(OCCCC(F)(F)F)c2sc(C(F)(F)P(=O)(O)O)c(Br)c2c1 (single isomer, unassigned) [Compound 411, ((3-bromo-5-(((R or S)-methylsulfonimidoyl)methyl)-7-(4,4,4-trifluorobutoxy)benzo[b]thiophen-2-yl)difluoromethyl)phosphonic acid] | 299 | 251
47 | CC(NC(=O)c1ccc2sc(C(F)(F)P(=O)(O)O)c(Br)c2c1)c1ccon1 (stereo not drawn) [Compound 194] | 1740 | 3200
48 | N#CCc1cc(OCCCC(F)(F)F)c2sc(C(F)(F)P(=O)(O)O)c(Br)c2c1 [Compound 448, ((3-bromo-5-(cyanomethyl)-7-(4,4,4-trifluorobutoxy)benzo[b]thiophen-2-yl)difluoromethyl)phosphonic acid] | 230 | 316
49 | O=P(O)(O)C(F)(F)c1sc2c(OCCCC(F)(F)F)cc(-c3cnn[nH]3)cc2c1Br [Compound 258, ((3-bromo-5-(1H-1,2,3-triazol-5-yl)-7-(4,4,4-trifluorobutoxy)benzo[b]thiophen-2-yl)difluoromethyl)phosphonic acid] | 4.3 | 8.39
50 | O=P(O)(O)C(F)(F)c1sc2c(OCCCC(F)(F)F)c(F)ccc2c1Br [Compound 231, ((3-bromo-6-fluoro-7-(4,4,4-trifluorobutoxy)benzo[b]thiophen-2-yl)difluoromethyl)phosphonic acid] | 879 | 989
51 | NC(=O)c1cc(OCC(F)CC(F)(F)F)c2sc(C(F)(F)P(=O)(O)O)c(Br)c2c1 (stereo not drawn) [Compound 464, ((3-bromo-5-carbamoyl-7-(2,4,4,4-tetrafluorobutoxy)benzo[b]thiophen-2-yl)difluoromethyl)phosphonic acid] | 42.6 | 39.7
